Measured values taken from US9682995B2, “Amino-substituted isothiazoles” (BAYER PHARMA AKTIENGESELLSCHAFT, priority 2013, dated 2017).
pIC50: −log10 of the molar value.

Key:
[1] = system: spindle assembly checkpoint; assay: SAC-Formation - Paclitaxel-Induced Assay; format: cell-based; conditions: Homo sapiens; HeLa cells, paclitaxel 0.05 μM, 24 h, phosphorylated histone H3 on serine 10
Description: The spindle assembly checkpoint assures the proper segregation of chromosomes during mitosis. Upon entry into mitosis, chromosomes begin to condensate which is accompanied by the phosphorylation of histone H3 on serine 10. Dephosphorylation of histone H3 on serine 10 begins in anaphase and ends at early telophase. Accordingly, phosphorylation of histone H3 on serine 10 can be utilized as a marker of cells in mitosis. Nocodazole is a microtubule destabilizing substance. Paclitaxel is a microtubule stabilizing compound. Thus, nocodazole as well as paclitaxel interfere with microtubule dynamics and mobilize the spindle assembly checkpoint. […] The mitotic breakthrough can be detected by the decrease of cells with phosphorylation of histone H3 on serine 10. This decline is used as a marker to determine the capability of compounds of the present invention to induce a mitotic breakthrough. The typical morphological alteration of nuclei with a prematurely completed mitosis after SAC-inhibition can be monitored via image analysis routines supporting those findings.
The nocodazole and paclitaxel variations were used to focus on compounds that are capable of inhibiting a SAC induced by both microtubule destabilization as well as microtubule stabilization. When SAC inducing agents and compounds are given simultaneously, inhibitors that effectively block the SAC during formation or abrogation are identified. When cells are incubated with a SAC inducing agent and the SAC interfering compound is given after a defined time, inhibitors are identified that effectively block SAC abrogation.
Cultivated cells of the human cervical tumor cell line HeLa (ATCC CCL-2) were plated at a density of 1000 cells/well in a 1536-well microtiter plate in 2 μl PAA Ham's F12 Medium supplemented with 1% (v/v) glutamine, 1% (v/v) penicillin, 1% (v/v) streptomycin and 10% (v/v) fetal calf serum. After incubation overnight at 37° C., 10 μl/well paclitaxel at a final concentration of 0.05 μM were added to cells. Test compounds solubilized in dimethyl sulfoxide (DMSO) were added at various concentrations (0 μM, as well as in the range of 0.005 μM-20 μM; the final concentration of the solvent DMSO was 0.5% (v/v)). Cells were incubated for 24 h at 37° C. in the presence of test compounds in combination with paclitaxel. Thereafter, cells were fixed in 4% (v/v) paraformaldehyde in phosphate buffered saline (PBS) at 4° C. overnight then permeabilized in 0.1% (v/v) Triton X™ 100 in PBS at room temperature for 20 min and blocked in 0.5% (v/v) bovine serum albumin (BSA) in PBS at room temperature for 15 min. After washing with PBS, 5 μl/well antibody solution (anti-phospho-histone H3 clone 3H10, FITC; Millipore, Cat #16-222; 1:1000 dilution) was added to cells, which were incubated for 2 h at room temperature. Afterwards, cells were washed with PBS and 5 μl/well solution of HOECHST 33342 dye (5 μg/ml) was added to cells and cells were incubated 15 min at room temperature in the dark. Cells were washed twice with PBS then covered with PBS and stored at 4° C. until analysis. Images were acquired with a PERKIN ELMER OPERA™ High-Content Analysis reader. Images were analyzed with image analysis software MetaXpress™ from Molecular devices utilizing the Mitotic Index application module. In this assay both labels HOECHST 33342 and phosphorylated Histone H3 on serine 10 were measured. HOECHST 33342 labels the DNA and is used to count the cell number. The staining of phosphorylated Histone H3 on serine 10 determines the number of mitotic cells. […] Otherwise cells were arrested at G2/M phase of the cell cycle progression. The raw assay data were further analyzed by four-parametric hill equation using Genedata's Assay Analyzer and Condoseo software.

CDK2/CycE = CDK2/CycE (Homo sapiens (Human), UniProt P24941); assay: CDK2/CycE kinase assay (TR-FRET); format: biochemical; conditions: 10 μM ATP; read-out: CDK2 avg (IC50 [mol/l])
Description: CDK2/CycE-inhibitory activity of compounds of the present invention was quantified employing the CDK2/CycE TR-FRET assay as described in the following paragraphs.
Recombinant fusion proteins of GST and human CDK2 and of GST and human CycE, expressed in insect cells (Sf9) and purified by Glutathion-Sepharose affinity chromatography, were purchased from ProQinase GmbH (Freiburg, Germany). As substrate for the kinase reaction biotinylated peptide biotin-Ttds-YISPLKSPYKISEG (C-terminus in amid form) was used which can be purchased e.g. form the company JERINI peptide technologies (Berlin, Germany).
For the assay 50 nl of a 100 fold concentrated solution of the test compound in DMSO was pipetted into a black low volume 384 well microtiter plate (Greiner Bio-One, Frickenhausen, Germany), 2 μl of a solution of CDK2/CycE in aqueous assay buffer [50 mM Tris/HCl pH 8.0, 10 mM MgCl2, 1.0 mM dithiothreitol, 0.1 mM sodium ortho-vanadate, 0.01% (v/v) Nonidet-P40 (Sigma)] were added and the mixture was incubated for 15 min at 22° C. to allow pre-binding of the test compounds to the enzyme before the start of the kinase reaction. Then the kinase reaction was started by the addition of 3 μl of a solution of adenosine-tri-phosphate (ATP, 16.7 μM=>final conc. in the 5 μl assay volume is 10 μM) and substrate (1.25 μM=>final conc. in the 5 μl assay volume is 0.75 μM) in assay buffer and the resulting mixture was incubated for a reaction time of 25 min at 22° C. The concentration of CDK2/CycE was adjusted depending of the activity of the enzyme lot and was chosen appropriate to have the assay in the linear range, typical concentrations were in the range of 130 ng/ml. The reaction was stopped by the addition of 5 μl of a solution of TR-FRET detection reagents (0.2 μM streptavidine-XL665 [Cisbio Bioassays, Codolet, France] and 1 nM anti-RB(pSer807/pSer811)-antibody from BD Pharmingen [#558389] and 1.2 nM LANCE EU-W1024 labeled anti-mouse IgG antibody [Perkin-Elmer, product no. AD0077, as an alternative a Terbium-cryptate-labeled anti-mouse IgG antibody from Cisbio Bioassays can be used]) in an aqueous EDTA-solution (100 mM EDTA, 0.2% (w/v) bovine serum albumin in 100 mM HEPES/NaOH pH 7.0).
The resulting mixture was incubated 1 h at 22° C. to allow the formation of complex between the phosphorylated biotinylated peptide and the detection reagents. Subsequently the amount of phosphorylated substrate was evaluated by measurement of the resonance energy transfer from the Eu-chelate to the streptavidine-XL. Therefore, the fluorescence emissions at 620 nm and 665 nm after excitation at 350 nm was measured in a TR-FRET reader, e.g. a Rubystar (BMG Labtechnologies, Offenburg, Germany) or a Viewlux (Perkin-Elmer). The ratio of the emissions at 665 nm and at […] was taken as the measure for the amount of phosphorylated substrate. The data were normalised (enzyme reaction without inhibitor=0% inhibition, all other assay components but no enzyme=100% inhibition).

| Structure (SMILES) | pIC50 [1] | pIC50 (CDK2/CycE) |
| --- | --- | --- |
| CCOC(=O)c1sc(Nc2snc(C)c2C(=O)Nc2ccccc2CC)nc1C [Example 26, Ethyl 2-({4-[(2-ethylphenyl)carbamoyl]-3-methyl-1,2-thiazol-5-yl}amino)-4-methyl-1,3-thiazole-5-carboxylate] | 6.60 | < 4.70 |
| Cc1nsc(Nc2cc(C#N)ccn2)c1C(=O)Nc1ccc(F)c(F)c1 [Example 27, 5-[(4-Cyanopyridin-2-yl)amino]-N-(3,4-difluorophenyl)-3-methyl-1,2-thiazole-4-carboxamide] | 6.77 | < 4.70 |
| Cc1nsc(Nc2ccc(C#N)cn2)c1C(=O)Nc1ccc(F)c(F)c1 [Example 28, 5-[(5-Cyanopyridin-2-yl)amino]-N-(3,4-difluorophenyl)-3-methyl-1,2-thiazole-4-carboxamide] | 7.14 | < 4.70 |
| CCOC(=O)c1cnc(Nc2snc(C)c2C(=O)Nc2ccc(OC)nc2)s1 [Example 29, Ethyl 2-({4-[(6-methoxypyridin-3-yl)carbamoyl]-3-methyl-1,2-thiazol-5-yl}amino)-1,3-thiazole-5-carboxylate] | 6.15 | < 4.70 |
| CCOC(=O)c1sc(Nc2snc(C)c2C(=O)Nc2ccc(OC)nc2)nc1C [Example 30, Ethyl 2-({4-[(6-methoxypyridin-3-yl)carbamoyl]-3-methyl-1,2-thiazol-5-yl}amino)-4-methyl-1,3-thiazole-5-carboxylate] | 6.49 | < 4.70 |
| COC(=O)c1ccc(Nc2snc(C)c2C(=O)Nc2ccc(OC)nc2)nc1 [Example 31, Methyl 6-({4-[(6-methoxypyridin-3-yl)carbamoyl]-3-methyl-1,2-thiazol-5-yl}amino)-nicotinate] | < 4.70 | < 4.70 |
| COC(=O)c1cnc(Nc2snc(C)c2C(=O)Nc2ccc(OC)nc2)cn1 [Example 32, Methyl 5-({4-[(6-methoxypyridin-3-yl)carbamoyl]-3-methyl-1,2-thiazol-5-yl}amino)-pyrazine-2-carboxylate] | 5.92 | < 4.70 |
| CCc1ccccc1NC(=O)c1c(C)nsc1Nc1cnc2cccc(C)c2n1 [Example 33, N-(2-Ethylphenyl)-3-methyl-5-[(8-methylquinoxalin-2-yl)amino]-1,2-thiazole-4-carboxamide] | 6.14 | < 4.70 |
| CCc1ccccc1NC(=O)c1c(C)nsc1Nc1nccnc1C#N [Example 34, 5-[(3-Cyanopyrazin-2-yl)amino]-N-(2-ethylphenyl)-3-methyl-1,2-thiazole-4-carboxamide] | 5.80 | < 4.70 |
| CCc1ccccc1NC(=O)c1c(C)nsc1Nc1nc(C)nc2ccccc12 [Example 35, N-(2-Ethylphenyl)-3-methyl-5-[(2-methylquinazolin-4-yl)amino]-1,2-thiazole-4-carboxamide] | 5.34 | < 4.70 |
| COc1ccc(NC(=O)c2c(C)nsc2Nc2ncccc2C#N)cn1 [Example 36, 5-[(3-Cyanopyridin-2-yl)amino]-N-(6-methoxypyridin-3-yl)-3-methyl-1,2-thiazole-4-carboxamide] | 5.43 | < 4.70 |
| COc1ccc(NC(=O)c2c(C)nsc2Nc2cccc(C#N)n2)cn1 [Example 37, 5-[(6-Cyanopyridin-2-yl)amino]-N-(6-methoxypyridin-3-yl)-3-methyl-1,2-thiazole-4-carboxamide] | 6.24 | < 4.70 |
| CCc1ccccc1NC(=O)c1c(C)nsc1Nc1nc(C)nc2sccc12 [Example 38, N-(2-Ethylphenyl)-3-methyl-5-[(2-methylthieno[2,3-d]pyrimidin-4-yl)amino]-1,2-thiazole-4-carboxamide] | 6.24 | < 4.70 |
| COc1ccc(NC(=O)c2c(C)nsc2Nc2ccc(C#N)cn2)cn1 [Example 39, 5-[(5-Cyanopyridin-2-yl)amino]-N-(6-methoxypyridin-3-yl)-3-methyl-1,2-thiazole-4-carboxamide] | 5.89 | < 4.70 |
| Cc1nsc(Nc2cnc3ccccc3n2)c1C(=O)Nc1ccc(Cl)c(F)c1 [Example 40, N-(4-Chloro-3-fluorophenyl)-3-methyl-5-(quinoxalin-2-ylamino)-1,2-thiazole-4-carboxamide] | 6.92 | < 4.70 |
| CCc1ccccc1NC(=O)c1c(C)nsc1Nc1cnc2ccc(Cl)cc2n1 [Example 41, 5-[(7-Chloroquinoxalin-2-yl)amino]-N-(2-ethylphenyl)-3-methyl-1,2-thiazole-4-carboxamide] | 6.09 | < 4.70 |
| COc1ccc(NC(=O)c2c(C)nsc2Nc2cnc3ccc(Cl)cc3n2)cn1 [Example 42, 5-[(7-Chloroquinoxalin-2-yl)amino]-N-(6-methoxypyridin-3-yl)-3-methyl-1,2-thiazole-4-carboxamide] | 6.05 | < 4.70 |
| COc1ccc(NC(=O)c2c(C)nsc2Nc2cnc3c(F)c(F)ccc3n2)cn1 [Example 43, 5-[(5,6-Difluoroquinoxalin-2-yl)amino]-N-(6-methoxypyridin-3-yl)-3-methyl-1,2-thiazole-4-carboxamide] | 6.96 | < 4.70 |
| COc1ccc(NC(=O)c2c(C)nsc2Nc2cnc3ccc(F)cc3n2)cn1 [Example 44, 5-[(7-Fluoroquinoxalin-2-yl)amino]-N-(6-methoxypyridin-3-yl)-3-methyl-1,2-thiazole-4-carboxamide] | 6.31 | < 4.70 |
